The values that follow come from DBAASP.

Test systems include Escherichia coli SBS 363; Klebsiella pneumoniae; Aspergillus fumigatus; Staphylococcus aureus; Bibersteinia trehalosi; Pasteurella multocida; Candida albicans C627; Escherichia coli UB1005; Escherichia coli DC2.
What all share (test): ≥ marks a high value that may be exact or a test limit, other limits are often not marked, values filed in µg/mL are converted to µM
In test [1] the test system is Staphylococcus aureus KCTC 3881.
For test [2], the system named is Proteus mirabilis ATCC 25933.
Test [3] deals with Bacillus subtilis ATCC 6633.
The subject of test [4] is Shigella dysenteriae ATCC 9752.
Test [5] deals with Micrococcus luteus ATCC 4698.
In test [6] the test system is Candida albicans ATCC 36232.
Test [7] concerns Pseudomonas aeruginosa ATCC 9027.
Test [8] deals with Staphylococcus epidermidis ATCC 12228.
In test [9] the test system is Klebsiella pneumoniae ATCC 10031.
Test [10] concerns Escherichia coli KCTC 2433.
In test [11] the test system is Staphylococcus aureus ATCC 12600.
Test [12] relates to Micrococcus luteus ATCC 49732.
Test [13] relates to Escherichia coli ATCC 11775.
Test [14] relates to Staphylococcus aureus ATCC 6538.
The test system of test [15] is Pseudomonas aeruginosa ATCC 14502.
Test [16] has as its system Pseudomonas aeruginosa 3552.
Test [17] has as its system Mannheimia haemolytica Serovar 1.
Test [18] concerns Mannheimia haemolytica Serovar 2.
Test [19] deals with Pseudomonas aeruginosa PAO1.
Test [20] deals with Corynebacterium pseudotuberculosis ATCC 19410.
Test [21] concerns Salmonella enterica subsp. arizonae.
The test system of test [22] is Mannheimia haemolytica Serovar 6.
Test [23] deals with Aeromonas salmonicida 99-1.
Test [24] relates to Aeromonas salmonicida 97-4.
Test [25] concerns Escherichia coli CGSC 4908.
Test [26] concerns Salmonella enterica serovar typhimurium MS7953s.
Test [27] relates to Pseudomonas aeruginosa Z61.
Test [28] has as its system Staphylococcus aureus C623.
Test [29] has as its system Aeromonas salmonicida A449.
Test [30] relates to Pseudomonas aeruginosa K799.
Test [31] concerns Staphylococcus epidermidis C621.
Test [32] has as its system Salmonella enterica subsp. enterica serovar Typhimurium ATCC 14028s.

Values after ≈ are worked out from the molar mass of the structure shown. Values joined by “and” are separate entries in the source; they are usually repeats but may differ in a detail not shown here. Equal values may be shown once. Where only a bound is given, the exact number is not on record here.

In the case of `CC(C)C[C@H](NC(=O)[C@H](CC(C)C)NC(=O)[C@H](CC(C)C)NC(=O)[C@@H]1CCCN1C(=O)[C@H](CC(C)C)NC(=O)[C@@H](N)Cc1ccccc1)C(=O)N[C@@H](C)C(=O)NCC(=O)N[C@@H](CC(C)C)C(=O)N1CCC[C@H]1C(=O)N[C@@H](CC(C)C)C(=O)N[C@@H](CCCCN)C(=O)N[C@@H](CC(C)C)C(=O)N[C@H]1CSSC[C@@H](C(=O)O)NC(=O)[C@H](CCCCN)NC(=O)[C@H](CCCCN)NC(=O)[C@H](Cc2ccccc2)NC(=O)[C@H](CC(C)C)NC(=O)[C@H](Cc2ccccc2)NC1=O` [FLPLLLAGLPLKLCFLFKKC], the MIC in test [1] is 5.49 µM (≈ 12.5 µg/mL); in test [2], not below 43.9 µM; in [3], 21.9 µM (≈ 50 µg/mL); in test [4] it was not below 43.9 µM; in [5], 2.74 µM (≈ 6.24 µg/mL); in [6] it was 21.9 µM (≈ 50 µg/mL). Besides, the MIC in test [7] was more than 43.9 µM; in test [8], 21.9 µM (≈ 50 µg/mL); in test [9] it was not below 43.9 µM; in [10], not below 43.9 µM.
In the case of `CC[C@H](C)[C@H](NC(=O)[C@H](C)NC(=O)[C@H](CO)NC(=O)[C@@H](NC(=O)[C@H](C)NC(=O)[C@H](CC(N)=O)NC(=O)[C@@H](NC(=O)[C@H](C)NC(=O)[C@H](Cc1cnc[nH]1)NC(=O)[C@@H]1CCCN1C(=O)[C@@H](NC(=O)[C@H](CC(C)C)NC(=O)[C@H](CO)NC(=O)[C@H](CC(C)C)NC(=O)[C@@H](N)Cc1ccccc1)[C@@H](C)CC)[C@@H](C)CC)C(C)C)C(=O)N[C@@H](C)C(=O)N[C@@H](CCCCN)C(=O)N[C@@H](Cc1cnc[nH]1)C(=O)N[C@@H](Cc1ccccc1)C(N)=O` [FLSLIPHAINAVSAIAKHF], the MIC in [11] came to 3.6 µM (≈ 7.37 µg/mL); with Escherichia coli SBS 363, 6 µM (≈ 12.3 µg/mL); in test [12] it was 1.8 µM (≈ 3.69 µg/mL); in [13], 7.2 µM (≈ 14.7 µg/mL); in [14], 6 µM (≈ 12.3 µg/mL); in [15], 6 µM (≈ 12.3 µg/mL).
For `CC[C@H](C)[C@H](NC(=O)CNC(=O)[C@@H](NC(=O)[C@H](Cc1cnc[nH]1)NC(=O)[C@H](CCCCN)NC(=O)[C@H](CCCCN)NC(=O)[C@H](CC(C)C)NC(=O)[C@H](CCCCN)NC(=O)[C@H](Cc1c[nH]c2ccccc12)NC(=O)[C@@H](N)CCCCN)[C@@H](C)CC)C(=O)NCC(=O)N[C@@H](CCCCN)C(=O)N[C@@H](Cc1cnc[nH]1)C(=O)N[C@@H](Cc1ccccc1)C(=O)N[C@@H](CC(C)C)C(=O)N[C@@H](CO)C(=O)N[C@@H](C)C(=O)N[C@@H](CCCCN)C(=O)N[C@@H](CCCCN)C(=O)N[C@@H](Cc1ccccc1)C(N)=O` [KWKLKKHIGIGKHFLSAKKF], the MIC in [16] was 8 µM and 4 µM.
In the case of `CC[C@H](C)[C@H](NC(=O)[C@H](CCCN=C(N)N)NC(=O)[C@H](CCCN=C(N)N)NC(=O)[C@@H](NC(=O)[C@@H](N)CC(N)=O)[C@@H](C)CC)C(=O)N[C@H](C(=O)N[C@@H](CCCN=C(N)N)C(=O)N[C@@H](CCCCN)C(=O)N[C@H](C(=O)N[C@H](C(=O)N[C@@H](Cc1cnc[nH]1)C(=O)N[C@H](C(=O)N[C@H](C(=O)N[C@@H](CCCCN)C(=O)N[C@@H](CCCCN)C(=O)N[C@@H](Cc1ccc(O)cc1)C(=O)O)[C@@H](C)CC)[C@@H](C)CC)[C@@H](C)CC)[C@@H](C)CC)[C@@H](C)CC` [NIRRIIRKIIHIIKKY], the MIC is 0.722 µM (≈ 1.5 µg/mL) in test [17]; 1.59 µM (≈ 3.3 µg/mL) in test [18]; 0.818 µM (≈ 1.7 µg/mL) against Klebsiella pneumoniae; 2.02 µM (≈ 4.2 µg/mL) in test [19]; 9.63 µM (≈ 20 µg/mL) in [20]; 2.41 µM (≈ 5 µg/mL) in [21]. Besides, the MIC is 4 µM (≈ 8.3 µg/mL) against Aspergillus fumigatus; 4.81 µM (≈ 10 µg/mL) with Staphylococcus aureus; 3.61 µM (≈ 7.5 µg/mL) in the test with Bibersteinia trehalosi; 1.59 µM (≈ 3.3 µg/mL) in test [22]; 0.626 µM (≈ 1.3 µg/mL) in the test with Pasteurella multocida.
For the molecule `CC[C@H](C)[C@H](NC(=O)[C@H](CO)NC(=O)[C@H](CCCCN)NC(=O)[C@@H](NC(=O)[C@@H](NC(=O)[C@H](CC(=O)O)NC(=O)[C@H](CCC(=O)O)NC(=O)[C@@H](NC(=O)[C@H](CO)NC(=O)[C@@H](N)CCCNC(=N)N)[C@@H](C)O)[C@@H](C)CC)[C@@H](C)CC)C(=O)N[C@@H](CO)C(=O)NCC(=O)NCC(=O)NCC(=O)N[C@@H](Cc1ccccc1)C(=O)N[C@@H](CC(C)C)C(=O)N[C@@H](CC(N)=O)C(=O)N[C@@H](C)C(=O)N[C@@H](CCSC)C(=O)N[C@@H](CC(N)=O)C(=O)N[C@@H](C)C(C)=O` [RSTEDIIKSISGGGFLNAMNA], the MIC (in test [23]; in the test on Candida albicans C627; in test [24]; in [25]; in [26]; in test [27]) was 29.3 µM (≈ 63.9 µg/mL) in each case. Also, the MIC (with Escherichia coli UB1005; in test [28]; against Escherichia coli DC2; in test [29]; in test [30]; in test [31]) was 29.3 µM (≈ 63.9 µg/mL) throughout. For the same molecule, the MIC in [32] was determined as 29.3 µM (≈ 63.9 µg/mL).

Usually MIC stands for the lowest concentration found to suppress growth.
